Source: article PMC5581232 (European journal of medicinal chemistry, 2017)
Like-named read-outs stand apart in the source and are kept apart here.

Experiments:
HBV = assay: Anti-HBV activity: HBV DNA replication; type: cell-based, Hepatitis B virus; conditions: for Anti-HBV activity (in words): HepAD38 cells
[1] = test system: HBeAg secretion (HBV cccDNA formation); assay: HBeAg reporter cell-based assay; parameters: species or system Hepatitis B virus; conditions: for Effect on secretion of HBeAg (in words): 3TC and ETV at 10 μM
HBV Cp149 = HBV Cp149 (Hepatitis B virus genotype D subtype ayw, UniProt P03146); assay: HBV Cp149 capsid formation by negative-stain electron microscopy; type: biochemical; conditions: 20 μM, 1 hr pre-incubation, assembly induced with NaCl overnight
[2] = Hepatitis B virus, HePAD38, read-out: HBeAg Secretion EC90, HepAD38 cells, ELISA
[3] = read-out: HBeAg Secretion EC90, HepAD38 cells, ELISA

Chain of HBV Cp149 (P03146 1-149): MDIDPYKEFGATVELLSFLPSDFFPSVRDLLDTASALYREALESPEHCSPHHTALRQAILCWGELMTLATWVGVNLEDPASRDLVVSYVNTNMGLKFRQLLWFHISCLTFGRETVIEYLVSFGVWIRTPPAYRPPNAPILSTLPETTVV

Row | SMILES | Effect on secretion of HBeAg (in words) ([1]; HepAD38 cells) | EC90 [1, 2] [µM] | EC90 [1, 3] [µM] | Effect on HBV Cp149 capsid formation (morphology, negative-stain TEM) (HBV Cp149) | Anti-HBV activity (in words) (HBV) | further results
1 | Nc1ccn([C@@H]2CS[C@H](CO)O2)c(=O)n1 [Compound 3TC, lamivudine, reference compound] | no effect |  |  |  |  | EC50 (HBV; Hepatitis B virus, HePAD38, read-out: HBV DNA – Extracellular EC50): 0.04 ± 0.03 µM
2 | O=C(Nc1ccc(F)c(F)c1)c1cc(S(=O)(=O)NC2CCCC2)ccc1F [Compound 4a, 5-(N-Cyclopentylsulfamoyl)-N-(3,4-difluorophenyl)-2-fluorobenzamide] |  | 3 to 4 | 4.6 ± 2 | form greater numbers of disfigured circular assemblies |  | 
3 | O=C(Nc1ccc(F)c(F)c1)c1cc(S(=O)(=O)N2CC(F)(F)C2)ccc1F [Compound 4f, 5-((3,3-Difluoroazetidin-1-yl)sulfonyl)-N-(3,4-difluorophenyl)-2-fluorobenzamide] |  | 3 to 4 | 3.2 ± 0.01 | a large number of incomplete, but typically spherical capsids aggregated into clusters |  | 
4 | O=C(Nc1cc(S(=O)(=O)NC2CCCC2)ccc1F)c1ccc(F)c(F)c1 [Compound 16, N-(5-(N-Cyclopentylsulfamoyl)-2-fluorophenyl)-3,4-difluorobenzamide] |  |  |  |  | complete loss of activity | 
5 | O=C(NC1(c2ccc(F)c(F)c2)CC1)c1cc(S(=O)(=O)NC2CCCC2)ccc1F [Compound 19, 5-(N-Cyclopentylsulfamoyl)-N-(1-(3,4-difluorophenyl)cyclopropyl)-2-fluorobenzamide] |  |  |  |  | complete loss of activity | 
6 | CC(C)(NC(=O)c1cccc(S(=O)(=O)NC2CCCC2)c1)c1ccc(F)c(F)c1 [Compound 21, 3-(N-Cyclopentylsulfamoyl)-N-(2-(3,4-difluorophenyl)propan-2-yl)benzamide] |  |  |  | properly formed HBV Cp149 capsids | complete loss of activity | 
7 | C=C1[C@H](CO)[C@@H](O)C[C@@H]1n1cnc2c(=O)[nH]c(N)nc21.O [ETV, entecavir] | no effect |  |  |  |  | 
8 | CCOC(=O)C1=C(CN2CCOCC2)NC(c2nccs2)=NC1c1ccc(F)cc1Br (stereo not shown) [GLS-4] | reduced secretion of HBeAg | 2 | 1.9 ± 0.04 |  |  | 
